# Data from ChEMBL document CHEMBL5465560, “Selectivity Literature for EUbOPEN Chemogenomic Library” (2024).
# pIC50: −log10 of the molar value.
# Experiments:
# [1] = target: Dual specificity mitogen-activated protein kinase kinase 2 (Homo sapiens) (UniProt P36507); assay: Selectivity interaction (Kinase panel (Z-LYTE Assay)) EUB0001632a MAP2K2; conditions: at 10 µM
# [2] = target: Tyrosine-protein kinase ABL1 (Homo sapiens, UniProt P00519); assay: Selectivity interaction (Kinase panel (33PanQinase(R) Activity Assay)) EUB0000877a ABL1
# [3] = target: T1, Ephrin type-B receptor 1 (Homo sapiens) (UniProt P54762); assay: Selectivity interaction (SelectScreen profiling (Invitrogen)) EUB0000607a EPHB1; conditions: at 2 µM
# T1 sequence (whole entry): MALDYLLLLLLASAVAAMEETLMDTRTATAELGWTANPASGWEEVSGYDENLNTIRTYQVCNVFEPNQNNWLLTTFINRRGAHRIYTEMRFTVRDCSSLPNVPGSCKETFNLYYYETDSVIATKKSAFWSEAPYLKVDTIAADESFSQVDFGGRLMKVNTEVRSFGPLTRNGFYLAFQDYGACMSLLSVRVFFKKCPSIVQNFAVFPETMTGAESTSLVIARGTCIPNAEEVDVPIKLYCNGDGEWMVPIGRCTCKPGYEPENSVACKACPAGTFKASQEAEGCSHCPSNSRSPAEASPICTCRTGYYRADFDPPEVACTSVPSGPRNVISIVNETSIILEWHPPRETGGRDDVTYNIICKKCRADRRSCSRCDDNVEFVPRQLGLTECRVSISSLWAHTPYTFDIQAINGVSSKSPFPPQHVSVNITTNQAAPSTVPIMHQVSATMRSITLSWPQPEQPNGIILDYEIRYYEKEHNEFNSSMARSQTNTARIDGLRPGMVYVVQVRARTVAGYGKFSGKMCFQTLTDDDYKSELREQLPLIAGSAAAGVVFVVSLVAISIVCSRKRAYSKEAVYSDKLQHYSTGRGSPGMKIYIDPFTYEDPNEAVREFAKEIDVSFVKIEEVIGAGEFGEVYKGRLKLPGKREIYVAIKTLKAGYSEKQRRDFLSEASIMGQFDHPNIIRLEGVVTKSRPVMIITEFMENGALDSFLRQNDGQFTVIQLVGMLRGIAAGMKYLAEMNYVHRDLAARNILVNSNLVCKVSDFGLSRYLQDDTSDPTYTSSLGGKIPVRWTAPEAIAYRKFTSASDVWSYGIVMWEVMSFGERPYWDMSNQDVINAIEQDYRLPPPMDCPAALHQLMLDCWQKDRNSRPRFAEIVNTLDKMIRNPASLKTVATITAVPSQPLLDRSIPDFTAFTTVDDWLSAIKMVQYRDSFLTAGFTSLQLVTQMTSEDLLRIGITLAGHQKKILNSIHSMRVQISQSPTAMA
# [4] = target: T2, Serine/threonine-protein kinase STK11 (Homo sapiens) (UniProt Q15831); assay: Selectivity interaction (KinomeScan (DiscoverX)) EUB0000695a STK11; conditions: at 100 nM
# T2 sequence (whole entry): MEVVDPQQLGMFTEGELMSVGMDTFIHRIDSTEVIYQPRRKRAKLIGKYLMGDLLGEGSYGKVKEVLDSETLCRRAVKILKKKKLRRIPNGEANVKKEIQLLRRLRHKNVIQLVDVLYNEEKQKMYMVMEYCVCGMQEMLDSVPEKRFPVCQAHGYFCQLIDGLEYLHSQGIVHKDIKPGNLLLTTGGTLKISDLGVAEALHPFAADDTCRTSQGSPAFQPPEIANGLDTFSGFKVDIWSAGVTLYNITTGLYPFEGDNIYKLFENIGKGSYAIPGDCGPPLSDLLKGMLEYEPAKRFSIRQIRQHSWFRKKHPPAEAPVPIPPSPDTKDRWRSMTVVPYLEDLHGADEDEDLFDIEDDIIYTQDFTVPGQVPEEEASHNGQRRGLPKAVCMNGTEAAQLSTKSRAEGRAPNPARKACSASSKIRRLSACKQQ
# [5] = target: Leukocyte tyrosine kinase receptor (Homo sapiens, UniProt P29376); assay: Selectivity interaction (KinomeScan (DiscoverX)) EUB0000695a LTK; conditions: at 100 nM
# [6] = tested on: Leucine-rich repeat serine/threonine-protein kinase 2 (Homo sapiens), Q5S007 [G2019S]; assay: (§1) Selectivity interaction (Ambit KINOMEscan and KiNATiv profiling in Jurkat cells) EUB0000090b LRRK2; format: cell-based; conditions: at 1 µM
# [7] = target: Leucine-rich repeat serine/threonine-protein kinase 2 (Homo sapiens, UniProt Q5S007); assay: as §1; format: cell-based; conditions: at 1 µM
# [8] = target: T3, Serine/threonine-protein kinase ICK (Homo sapiens) (UniProt Q9UPZ9); assay: Selectivity interaction (Ambit KINOMEscan and KiNATiv profiling in Jurkat cells) EUB0000090b ICK; format: cell-based; conditions: at 1 µM
# T3 sequence (whole entry): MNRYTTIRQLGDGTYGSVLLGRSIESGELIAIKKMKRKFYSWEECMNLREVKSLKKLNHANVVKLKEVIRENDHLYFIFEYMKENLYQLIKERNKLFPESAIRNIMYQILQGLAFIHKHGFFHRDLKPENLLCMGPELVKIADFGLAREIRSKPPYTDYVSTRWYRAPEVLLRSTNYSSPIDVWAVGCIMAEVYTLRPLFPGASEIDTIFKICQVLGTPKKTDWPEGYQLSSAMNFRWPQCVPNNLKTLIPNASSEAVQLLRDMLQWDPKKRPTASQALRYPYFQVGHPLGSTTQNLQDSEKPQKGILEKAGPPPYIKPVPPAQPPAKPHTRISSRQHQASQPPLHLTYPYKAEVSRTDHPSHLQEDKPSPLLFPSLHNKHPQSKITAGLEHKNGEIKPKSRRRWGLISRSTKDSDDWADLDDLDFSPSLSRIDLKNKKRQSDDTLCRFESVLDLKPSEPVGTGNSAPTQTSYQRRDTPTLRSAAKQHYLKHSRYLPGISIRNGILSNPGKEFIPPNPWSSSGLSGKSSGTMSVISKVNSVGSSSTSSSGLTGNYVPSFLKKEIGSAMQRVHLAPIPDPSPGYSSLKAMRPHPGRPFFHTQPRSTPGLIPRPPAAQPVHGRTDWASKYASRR
# [9] = target: Atypical kinase COQ8A, mitochondrial (Homo sapiens, UniProt Q8NI60); assay: Selectivity interaction (KinomeScan (DiscoverX)) EUB0000655a ADCK3; conditions: at 10 µM
# [10] = tested on: Fibroblast growth factor receptor 3 (Homo sapiens), P22607 [G697C]; assay: (§2) Selectivity interaction (KinomeScan (DiscoverX)) EUB0000655a FGFR3; conditions: at 10 µM
# [11] = target: Fibroblast growth factor receptor 3 (Homo sapiens, UniProt P22607); assay: as §2; conditions: at 10 µM
# [12] = target: Receptor tyrosine-protein kinase erbB-3 (Homo sapiens) (UniProt P21860); assay: Selectivity interaction (KinomeScan (DiscoverX)) EUB0000655a ERBB3; conditions: at 10 µM
# [13] = target: Tyrosine-protein kinase Fer (Homo sapiens) (UniProt P16591); assay: Selectivity interaction (KinomeScan (DiscoverX)) EUB0000229b FER; conditions: at 10 µM
# Sequence of Leukocyte tyrosine kinase receptor (P29376 whole entry): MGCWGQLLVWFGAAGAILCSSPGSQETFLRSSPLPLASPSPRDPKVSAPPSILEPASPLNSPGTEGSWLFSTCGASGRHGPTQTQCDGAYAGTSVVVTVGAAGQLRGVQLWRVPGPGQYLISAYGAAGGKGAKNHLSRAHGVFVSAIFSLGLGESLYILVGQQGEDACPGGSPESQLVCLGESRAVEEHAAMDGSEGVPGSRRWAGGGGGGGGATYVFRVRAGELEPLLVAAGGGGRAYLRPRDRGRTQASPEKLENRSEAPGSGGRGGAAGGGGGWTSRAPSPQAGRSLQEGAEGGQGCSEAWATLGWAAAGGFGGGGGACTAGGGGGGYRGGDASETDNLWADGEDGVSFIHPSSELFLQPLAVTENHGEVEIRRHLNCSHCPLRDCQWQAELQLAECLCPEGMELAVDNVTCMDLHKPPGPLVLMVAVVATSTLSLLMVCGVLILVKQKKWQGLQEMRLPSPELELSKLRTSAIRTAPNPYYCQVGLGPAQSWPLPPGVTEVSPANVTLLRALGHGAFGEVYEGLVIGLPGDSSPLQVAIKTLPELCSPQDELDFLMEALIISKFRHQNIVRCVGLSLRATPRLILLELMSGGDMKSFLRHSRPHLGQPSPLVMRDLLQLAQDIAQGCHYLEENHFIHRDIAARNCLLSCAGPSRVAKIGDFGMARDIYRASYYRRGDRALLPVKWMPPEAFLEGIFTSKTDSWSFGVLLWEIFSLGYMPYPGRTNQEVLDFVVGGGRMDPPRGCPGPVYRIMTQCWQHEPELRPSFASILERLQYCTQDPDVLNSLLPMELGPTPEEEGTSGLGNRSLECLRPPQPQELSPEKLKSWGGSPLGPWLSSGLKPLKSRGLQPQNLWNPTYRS
# Sequence of Atypical kinase COQ8A, mitochondrial (Q8NI60 163-647 limits assumed): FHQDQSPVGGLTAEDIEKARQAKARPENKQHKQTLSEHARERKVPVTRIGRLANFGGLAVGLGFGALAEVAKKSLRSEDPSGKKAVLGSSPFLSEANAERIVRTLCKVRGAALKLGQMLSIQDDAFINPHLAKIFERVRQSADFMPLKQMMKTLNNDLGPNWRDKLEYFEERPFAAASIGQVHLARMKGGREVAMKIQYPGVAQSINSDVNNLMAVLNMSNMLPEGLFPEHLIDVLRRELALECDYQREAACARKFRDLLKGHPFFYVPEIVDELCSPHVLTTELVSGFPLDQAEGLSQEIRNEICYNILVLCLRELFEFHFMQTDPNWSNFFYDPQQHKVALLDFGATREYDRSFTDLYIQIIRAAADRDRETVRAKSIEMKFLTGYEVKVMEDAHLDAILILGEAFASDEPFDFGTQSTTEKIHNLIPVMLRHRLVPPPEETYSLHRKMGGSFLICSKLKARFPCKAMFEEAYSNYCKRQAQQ
# Sequence of Fibroblast growth factor receptor 3 (Homo sapiens), P22607 [G697C] (P22607 whole entry G697C): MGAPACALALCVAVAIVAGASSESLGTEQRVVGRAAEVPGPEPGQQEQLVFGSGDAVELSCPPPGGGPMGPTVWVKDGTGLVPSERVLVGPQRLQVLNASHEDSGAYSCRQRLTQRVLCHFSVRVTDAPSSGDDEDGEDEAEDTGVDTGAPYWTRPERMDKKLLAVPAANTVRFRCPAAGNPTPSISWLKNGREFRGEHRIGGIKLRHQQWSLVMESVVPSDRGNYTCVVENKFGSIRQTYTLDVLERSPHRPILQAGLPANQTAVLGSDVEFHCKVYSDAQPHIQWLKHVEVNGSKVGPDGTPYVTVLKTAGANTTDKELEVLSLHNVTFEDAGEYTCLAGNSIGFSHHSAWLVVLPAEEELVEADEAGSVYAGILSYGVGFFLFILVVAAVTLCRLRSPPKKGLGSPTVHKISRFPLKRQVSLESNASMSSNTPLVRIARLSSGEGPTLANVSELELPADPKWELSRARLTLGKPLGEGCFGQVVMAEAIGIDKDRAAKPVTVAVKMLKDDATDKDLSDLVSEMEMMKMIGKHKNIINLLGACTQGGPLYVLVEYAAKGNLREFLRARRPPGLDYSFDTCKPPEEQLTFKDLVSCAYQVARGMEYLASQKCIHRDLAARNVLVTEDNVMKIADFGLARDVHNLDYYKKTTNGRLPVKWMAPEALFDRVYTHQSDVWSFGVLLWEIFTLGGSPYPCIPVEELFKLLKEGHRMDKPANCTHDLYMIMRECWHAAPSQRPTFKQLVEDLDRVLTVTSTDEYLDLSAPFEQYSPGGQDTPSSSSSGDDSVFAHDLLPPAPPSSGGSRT
# Sequence of Fibroblast growth factor receptor 3 (P22607 23-806 limits assumed): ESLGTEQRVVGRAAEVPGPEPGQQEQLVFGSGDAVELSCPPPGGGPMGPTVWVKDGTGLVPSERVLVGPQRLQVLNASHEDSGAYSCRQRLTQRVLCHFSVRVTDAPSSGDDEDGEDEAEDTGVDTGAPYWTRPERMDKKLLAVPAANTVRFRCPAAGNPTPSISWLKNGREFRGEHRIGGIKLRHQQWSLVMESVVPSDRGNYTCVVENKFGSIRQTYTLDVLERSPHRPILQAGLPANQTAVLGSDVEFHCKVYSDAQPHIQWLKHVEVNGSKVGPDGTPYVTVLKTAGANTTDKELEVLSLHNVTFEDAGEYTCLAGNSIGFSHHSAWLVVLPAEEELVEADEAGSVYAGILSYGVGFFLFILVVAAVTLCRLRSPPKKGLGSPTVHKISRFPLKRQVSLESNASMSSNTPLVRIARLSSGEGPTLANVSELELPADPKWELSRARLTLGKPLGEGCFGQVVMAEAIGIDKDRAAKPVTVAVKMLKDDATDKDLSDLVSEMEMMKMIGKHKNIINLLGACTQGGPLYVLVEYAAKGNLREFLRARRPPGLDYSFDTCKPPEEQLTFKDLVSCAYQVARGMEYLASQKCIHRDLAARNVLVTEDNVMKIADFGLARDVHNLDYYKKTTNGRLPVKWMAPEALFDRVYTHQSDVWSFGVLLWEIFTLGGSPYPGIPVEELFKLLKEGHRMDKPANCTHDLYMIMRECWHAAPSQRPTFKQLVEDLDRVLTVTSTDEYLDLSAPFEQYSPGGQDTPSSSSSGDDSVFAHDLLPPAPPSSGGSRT
# Sequence of Receptor tyrosine-protein kinase erbB-3 (Homo sapiens) (P21860 whole entry): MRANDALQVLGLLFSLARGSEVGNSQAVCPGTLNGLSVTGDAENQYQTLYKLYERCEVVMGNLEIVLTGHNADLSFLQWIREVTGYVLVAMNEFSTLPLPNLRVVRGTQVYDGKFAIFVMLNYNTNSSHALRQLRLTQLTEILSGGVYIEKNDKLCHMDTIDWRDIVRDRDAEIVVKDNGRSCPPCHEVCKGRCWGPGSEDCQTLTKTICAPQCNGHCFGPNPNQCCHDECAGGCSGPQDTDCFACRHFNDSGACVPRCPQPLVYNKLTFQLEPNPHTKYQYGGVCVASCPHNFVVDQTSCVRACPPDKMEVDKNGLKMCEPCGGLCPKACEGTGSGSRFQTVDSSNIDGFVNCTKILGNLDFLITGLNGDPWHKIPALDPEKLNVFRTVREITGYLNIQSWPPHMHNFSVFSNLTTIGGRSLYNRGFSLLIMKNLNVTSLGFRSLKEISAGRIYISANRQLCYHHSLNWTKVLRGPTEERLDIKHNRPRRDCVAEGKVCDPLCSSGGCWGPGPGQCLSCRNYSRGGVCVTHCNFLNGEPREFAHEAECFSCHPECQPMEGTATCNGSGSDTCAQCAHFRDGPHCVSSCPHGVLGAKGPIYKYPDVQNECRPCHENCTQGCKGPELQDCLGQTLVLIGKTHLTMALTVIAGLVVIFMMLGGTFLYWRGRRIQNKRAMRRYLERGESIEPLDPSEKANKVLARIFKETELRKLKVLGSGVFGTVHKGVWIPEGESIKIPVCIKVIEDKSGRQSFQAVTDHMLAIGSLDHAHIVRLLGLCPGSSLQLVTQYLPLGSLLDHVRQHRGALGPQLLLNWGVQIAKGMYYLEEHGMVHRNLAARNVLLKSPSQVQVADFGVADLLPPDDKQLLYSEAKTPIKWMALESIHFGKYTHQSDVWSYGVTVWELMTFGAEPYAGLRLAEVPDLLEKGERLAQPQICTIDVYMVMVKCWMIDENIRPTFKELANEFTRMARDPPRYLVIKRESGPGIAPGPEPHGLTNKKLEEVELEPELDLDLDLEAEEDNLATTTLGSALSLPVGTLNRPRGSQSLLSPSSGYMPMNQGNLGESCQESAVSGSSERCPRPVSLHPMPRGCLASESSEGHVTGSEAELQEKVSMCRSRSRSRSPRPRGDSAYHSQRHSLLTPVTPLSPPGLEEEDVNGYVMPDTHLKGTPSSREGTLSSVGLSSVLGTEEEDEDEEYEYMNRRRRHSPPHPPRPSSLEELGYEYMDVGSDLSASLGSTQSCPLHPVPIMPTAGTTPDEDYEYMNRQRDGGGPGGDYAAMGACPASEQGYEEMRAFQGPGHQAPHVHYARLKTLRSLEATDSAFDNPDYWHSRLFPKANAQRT
# Sequence of Dual specificity mitogen-activated protein kinase kinase 2 (Homo sapiens) (P36507 whole entry): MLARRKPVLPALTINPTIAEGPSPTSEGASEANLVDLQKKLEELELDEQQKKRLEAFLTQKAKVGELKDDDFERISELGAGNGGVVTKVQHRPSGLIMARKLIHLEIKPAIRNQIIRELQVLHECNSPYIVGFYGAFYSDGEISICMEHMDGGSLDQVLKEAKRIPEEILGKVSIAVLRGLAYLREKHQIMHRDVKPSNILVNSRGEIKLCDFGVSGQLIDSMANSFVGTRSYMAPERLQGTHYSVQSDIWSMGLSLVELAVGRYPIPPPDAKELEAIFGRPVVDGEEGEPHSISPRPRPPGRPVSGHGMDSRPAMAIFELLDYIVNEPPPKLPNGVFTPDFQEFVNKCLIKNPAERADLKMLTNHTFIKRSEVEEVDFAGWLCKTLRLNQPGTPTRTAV
compound,measurement,setting,value
Cn1cc(-n2cnc3c(NCc4nc5cc(Cl)c(Cl)cc5[nH]4)nc(N4CCOCC4)nc32)cn1,% of control,[1],3.34%
CCC(=O)N1CC[C@H](Nc2ncnc3c2CN(c2cnc(OC)c(C(F)(F)F)c2)CC3)C1 [LENIOLISIB],pIC50,[2],< 5.00
CNC(=O)Nc1ccc(-c2nc(N3CC4CCC(C3)O4)c3cnn(C4CCC5(CC4)OCCO5)c3n2)cc1,% of inhibition,[3],2%
Cc1cc(F)c(C(=O)Nc2cccc(-c3nncn3C(C)C)n2)cc1-n1cnc(C2CC2)c1,% of control,[4],80%
same,% of control,[5],93%
CN(C)C/C=C/C(=O)Nc1ccc(C(=O)N2CCCC(Nc3ncc(Cl)c(-c4c[nH]c5ccccc45)n3)C2)cc1 (stereo not drawn),% of control,[6],92%
same,% of control,[7],84%
same,% of control,[8],62%
CN(C)CCOc1ccc(-c2nc(-c3ccncc3)c(-c3ccc4c(c3)CC/C4=N\O)[nH]2)cc1,% of control,[9],7%
same,% of control,[10],100%
same,% of control,[11],100%
same,% of control,[12],0.7%
COc1cc(N(C)c2ccnc3ccc(C(F)(F)F)cc23)cc(OC)c1OC,% binding,[13],95%
